Key:
[1] = tested on: pure motor neurons grown in CT-1; assay: BDNF-conferred excitotoxic sensitivity of pure motor neurons after cholesterol depletion; type: cell-based; details: for excitotoxic cell death: acute BMCD or vehicle followed by BDNF or vehicle, then kainate
Description: (§1) Finally to begin to determine the biological relevance of the lipid raft signaling complex, we asked if their disruption with cholesterol depleting agents would affect the capacity of BDNF to confer excitotoxic sensitivity upon motor neurons. Pure motor neurons were grown in the presence of CT-1 but in the absence of BDNF for 24 hours at which point the cholesterol depleting agent, β-methylcyclodextin (βMCD) or vehicle was added to the cultures. Thirty minutes later, BDNF or vehicle was added to the culture and 3 hours later the excitoticity assay was performed (FIG. 6b). We determined the amount of cholesterol in our pure motor neuron cultures after 30 minutes of βMCD treatment and found an ˜25% reduction in comparison with vehicle treatment (βMCD v. vehicle; 404±31 μg/μg protein versus 550±16 μg/μg protein, n=5 samples, t-test, p<0.001). In terms of cell death, a statistically significant difference between experimental groups was identified by ANOVA (F(5,42)=32.797; P<0.001) and a post hoc analysis (Scheffé with level of significance set at P<0.05) indicated excitotoxic death only occurred in the (+)BDNF/(−)βMCD treatment group (# of motor neurons exposed to vehicle or kainate; 57±7 versus 40±4).

[2] = tested on: motor neurons; assay: Cholesterol content of pure motor neuron cultures (Amplex Red Cholesterol Assay); type: cell-based, rat; details: after 30 minutes of treatment
Description: Two hundred thousand motor neurons were plated in wells of a 96 well dish and after 24 hrs. treated with βMCD or vehicle. Thirty minutes later cholesterol content was determined using the Amplex® Red Cholesterol Assay kit (Molecular Probes) according to the manufacturers instructions. All determinations were made in quintuplicate and normalized to protein content (determined using Protein Assay kit (Bio-Rad)).
as §1, with “In terms of cell death, a statistically significant difference between experimental groups was identified by ANOVA (F(5,42)=32.797; P<0.001) and a post hoc analysis (Scheffé with level of significance set at P<0.05) indicated excitotoxic death only occurred in the (+)BDNF/(−)βMCD treatment group (# of motor neurons exposed to vehicle or kainate; 57±7 versus 40±4).” left out

[3] = tested on: ALS patients; details: intrathecal 25 μg/day or 150 μg/day versus vehicle, 18 months; cited from earlier work

Molecule	# of motor neurons ([1]; (+)BDNF/(+)βMCD group, exposed to kainate)	# of motor neurons ([1]; (+)BDNF/(+)βMCD group, exposed to vehicle)	# of motor neurons ([1]; (−)BDNF/(+)βMCD group, exposed to kainate)	# of motor neurons ([1]; (−)BDNF/(+)βMCD group, exposed to vehicle)	toxicity to motor neurons ([1]; BMCD alone)	excitotoxic cell death [1]	reduction of cholesterol in comparison with vehicle [2] [%]	# of motor neurons ([1]; (+)BDNF/(−)βMCD group, exposed to kainate)	# of motor neurons ([1]; (+)BDNF/(−)βMCD group, exposed to vehicle)	survival rate (survival free of ventilatory support) [3]
β-methylcyclodextin [βMCD]	51±5	58±4	60±5	60±3	non-toxic	did not occur	~25	–	–	–
BDNF: brain-derived neurotrophic factor, activates the receptor tyrosine kinase TrkB (protein, UniProt P23560 19-247, looked up) Neurotrophic factor BDNF …: APMKEANIRGQGGLAYPGVRTHGTLESVNGPKAGSRGLTSLADTFEHVIEELLDEDQKVRPNEENNKDADLYTSRVMLSSQVPLEPPLLFLLEEYKNYLDAANMSMRVRRHSDPARRGELSVCDSISEWVTAADKKTAVDMSGGTVTVLEKVPVSKGQLKQYFYETKCNPMGYTKEGCRGIDKRHWNSQCRTTQSYVRALTMDSKKRIGWRFIRIDTSCVCTLTIKRGR	–	–	–	–	–	Excitotoxic cell death occurred	–	40±4	57±7	lower than in the placebo group
